Test results taken from the supplement of paper PMC11451515.

Test system: NOMO1
Experiment: cell viability relative to DMSO control; higher = less cytotoxic
Conditions: 48 h
In short: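 Viability, reported as a per-plate percentage of DMSO wells with cell-free wells as background, came from CellTiter-Glo One luminescence. Reading took place after 48 h at 37°C. Before that, NOMO1 or SEM (500 cells/well) or P12-Ichikawa (1000 cells/well) leukemia cells, adapted for at least four passages in each medium, were seeded in 1536-well plates (5 μl) and pin-dosed with library compounds in DMSO, 47 μM to 0.79 nM over 11 threefold points.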

[1] = HPLM + 10% dialyzed FBS, 0.000781 µM
[2] = HPLM + 10% dialyzed FBS, 0.00234 µM
[3] = HPLM + 10% dialyzed FBS, 0.00702 µM
[4] = HPLM + 10% dialyzed FBS, 0.0211 µM
[5] = HPLM + 10% dialyzed FBS, 0.0632 µM
[6] = HPLM + 10% dialyzed FBS, 0.19 µM
[7] = HPLM + 10% dialyzed FBS, 0.569 µM
[8] = HPLM + 10% dialyzed FBS, 1.71 µM
[9] = HPLM + 10% dialyzed FBS, 5.12 µM
[10] = HPLM + 10% dialyzed FBS, 15.4 µM
[11] = HPLM + 10% dialyzed FBS, 46.1 µM
[12] = RPMI 5 mM glucose + 10% FBS, 0.000781 µM
[13] = RPMI 5 mM glucose + 10% FBS, 0.00234 µM
[14] = RPMI 5 mM glucose + 10% FBS, 0.00702 µM
[15] = RPMI 5 mM glucose + 10% FBS, 0.0211 µM
[16] = RPMI 5 mM glucose + 10% FBS, 0.0632 µM
[17] = RPMI 5 mM glucose + 10% FBS, 0.19 µM
[18] = RPMI 5 mM glucose + 10% FBS, 0.569 µM
[19] = RPMI 5 mM glucose + 10% FBS, 1.71 µM
[20] = RPMI 5 mM glucose + 10% FBS, 5.12 µM
[21] = RPMI 5 mM glucose + 10% FBS, 15.4 µM
[22] = RPMI 5 mM glucose + 10% FBS, 46.1 µM
[23] = RPMI 5 mM glucose + 10% dialyzed FBS, 0.000781 µM
[24] = RPMI 5 mM glucose + 10% dialyzed FBS, 0.00234 µM
[25] = RPMI 5 mM glucose + 10% dialyzed FBS, 0.00702 µM
[26] = RPMI 5 mM glucose + 10% dialyzed FBS, 0.0211 µM
[27] = RPMI 5 mM glucose + 10% dialyzed FBS, 0.0632 µM
[28] = RPMI 5 mM glucose + 10% dialyzed FBS, 0.19 µM
[29] = RPMI 5 mM glucose + 10% dialyzed FBS, 0.569 µM
[30] = RPMI 5 mM glucose + 10% dialyzed FBS, 1.71 µM
[31] = RPMI 5 mM glucose + 10% dialyzed FBS, 5.12 µM
[32] = RPMI 5 mM glucose + 10% dialyzed FBS, 15.4 µM
[33] = RPMI 5 mM glucose + 10% dialyzed FBS, 46.1 µM

Row | SMILES | cell viability [1] [%] | cell viability [2] [%] | cell viability [3] [%] | cell viability [4] [%] | cell viability [5] [%] | cell viability [6] [%] | cell viability [7] [%] | cell viability [8] [%] | cell viability [9] [%] | cell viability [10] [%] | cell viability [11] [%] | cell viability [12] [%] | cell viability [13] [%] | cell viability [14] [%] | cell viability [15] [%] | cell viability [16] [%] | cell viability [17] [%] | cell viability [18] [%] | cell viability [19] [%] | cell viability [20] [%] | cell viability [21] [%] | cell viability [22] [%] | cell viability [23] [%] | cell viability [24] [%] | cell viability [25] [%] | cell viability [26] [%] | cell viability [27] [%] | cell viability [28] [%] | cell viability [29] [%] | cell viability [30] [%] | cell viability [31] [%] | cell viability [32] [%] | cell viability [33] [%]
1 | C[C@H](NCc1ccc(OCc2cccc(F)c2)cc1)C(N)=O | 87.6 | 125 | 121 | 113 | 116 | 116 | 124 | 133 | 97.7 | 95.1 | 18.4 | 110 | 109 | 106 | 108 | 106 | 117 | 122 | 111 | 113 | 104 | 50.3 | 110 | 114 | 125 | 110 | 107 | 123 | 111 | 116 | 99.7 | 97.4 | 62.8
2 | CN(C)[C@@H](CCOc1cccc2ccccc12)c1ccccc1 | 110 | 117 | 129 | 103 | 124 | 114 | 110 | 97.5 | 86.4 | 106 | 70.6 | 105 | 112 | 106 | 109 | 119 | 106 | 110 | 113 | 99.8 | 98.4 | 68.9 | 113 | 114 | 114 | 111 | 106 | 99 | 119 | 113 | 114 | 92.7 | 52.1
3 | C[N]1N=CC=C1C/2=C(\C)N(C(=O)C(=C2)/C(=O)NCC3=NC=C(C=C3)[S+](C)([O-])=O)C4=CC=CC(=C4)C(F)(F)F | – | – | – | – | – | – | – | – | – | – | – | 105 | 127 | 98.9 | 107 | 118 | 102 | 102 | 97.5 | 100 | 96.2 | 93.5 | 99 | 106 | 101 | 113 | 111 | 123 | 95.7 | 79.7 | 79.7 | 90.1 | 103
4 | CN(C(Cc1ccc(O[S+](=O)([O-])c2cccc3cnccc23)cc1)C(=O)N1CCN(c2ccccc2)CC1)[S+](=O)([O-])c1cccc2cnccc12 (configuration not stated) | 127 | 98.3 | 109 | 113 | 103 | 120 | 132 | 95.2 | 105 | 77 | 48.4 | 93.8 | 81.5 | 95.8 | 101 | 93.8 | 86.3 | 95.2 | 82.6 | 91.4 | 82.5 | 66.3 | 82.5 | 97.7 | 99.8 | 94.5 | 89.2 | 101 | 93.9 | 98.4 | 93.8 | 81.6 | 56.1
5 | O=C(NCc1ccccc1)c1csc(Nc2ccncn2)n1 | 86.8 | 95.2 | 101 | 94 | 121 | 97.3 | 97.6 | 51.2 | 26.7 | 4.88 | 2.11 | 90.8 | 82.1 | 98.6 | 83 | 94.8 | 98.2 | 95.4 | 56.6 | 33.4 | 4.95 | 3.15 | 92 | 95 | 93.2 | 85.2 | 93.7 | 77.2 | 103 | 67.7 | 33.9 | 4.75 | 3.19
6 | CCCCCCCCCCCC/1=C(O)/C(=O)/C=C(O)\C1=O | 112 | 116 | 142 | 127 | 154 | 151 | 51.1 | 39.4 | 40.9 | 35.5 | 28.6 | – | – | – | – | – | – | – | – | – | – | – | – | – | – | – | – | – | – | – | – | – | –
7 | CC1=C(/C=C/C(C)=C/C=C/C(C)=C/C(=O)O)C(C)(C)CCC1 | 106 | 106 | 144 | 126 | 114 | 127 | 110 | 104 | 98 | 84.3 | 80.3 | 128 | 124 | 114 | 111 | 118 | 122 | 128 | 110 | 94 | 99.1 | 68.4 | – | – | – | – | – | – | – | – | – | – | –
